Measurements reported in patent publication US5807891A, “Antiviral ethers of aspartate protease substrate isosteres” (priority 1994, dated 1998).
Read-outs that look alike come from different tables or passages of the source.

Assays:
[1] = test system: H9/HIV-1/IIIB cells cocultured with CEM-SS cells; experiment: Antiviral activity in coculture of CEM-SS cells and permanently infected H9/HIV-1/IIIB cells, RT activity; assay type: cell-based; conditions: Human immunodeficiency virus 1, IIIB, 96 h; for inhibition at 0.0125 µM: 12.5 nM
Description: The final concentration of free DMSO is less than 0.5%. When using cell lines: The cell lines are maintained in complete culture medium of the following composition: RPMI 1640 (GIBCO, Paisley, Scotland), supplemented with 10% foetal calf serum (SEROMED, Berlin, Germany), 10 mM 4-(2-hydroxyethyl)piperazine-1-ethanesulfonic acid(=HEPES) and 2 mM L-glutamine (AMIMED, Muttenz, Switzerland). […] The test compounds are tested as individual substances or as a combination of two active substances in defined concentration ratios. H9/HIV-1/IIIB cells are mixed, after having been washed twice and having been suspended in fresh medium, with CEM-SS cells in a ratio of 1:50. 100 μl of the cell mixture are dispensed into each well of 96-well tissue culture plates with the wells in each case containing 400 H9/HIV-1/IIIB cells and 2×10^4 CEM-SS cells. Immediately after the cells have been dispensed, two-fold serial dilutions of the test compounds are added (100 μl per well) in each case in sets of six. Instead of this, 100 μl of medium are added to each well for the virus control (VC); CEM-SS cells on their own (without H9/HIV-1/IIIB cells) are used as the control (CC). The final volume is 200 μl/well. […] The virus production is determined as the virus-associated activity of the reverse transcriptase (RT) in accordance with the following method, which has already been described above (see […]., et al., Antimicrob. Agent Chemother. 37(10), 2087-92 (1993)): When carrying out the measurement, 30 μl of reverse transcriptase cocktail are added to each well. The reverse transcriptase cocktail consists of 50 mM Tris (α,α,α-tris(hydroxymethyl)methylamine, Ultra pur, Merck, Germany), pH 7.8; 75 mM KCl, 2 mM dithiothreitol, 5 mM MgCl2; 0.1% Nonidet P-40 (detergent; Sigma, Switzerland), 0.8 mM EDTA, 10 μg/ml poly-A (Pharmacia, Uppsala, Sweden) and 0.16 μg/ml oligo(T)(=pdT(12-18), Pharmacia, Uppsala, Sweden) as template primer. The mixture is filtered through a 0.45 μm Acrodisc filter (Gelman Sciences Inc., Ann Arbor, U.S.A.) and stored at -20° C. […] After mixing, the plate is incubated at 37° C. for 1.5 h. 5 μl of the reaction mixture are transferred to DE81 paper (Whatman, one filter per well). The dried filters are washed three times for 5 min with 300 mM NaCl/25 mM trisodium citrate and then once with ethanol, and air-dried once again. The radioactivity on the filters is measured in a Packard Matrix 96-well counter (Packard, Zurich, Switzerland). The antiretroviral effect is given as the % reduction in RT activity as compared with the VC values. The activities of the individual compounds, and the combinations, mentioned in the title, in the coculture of the CEM-SS cell line and the permanently infected cell line H9/HIV-1/IIIB are determined using the method described above in association with the description of the pharmacological properties. The measurement result is expressed as % reduction of the reverse transcriptase (RT) activity. The results are presented in the following table; measurement results which confirm the occurrence of synergism are emphasized by underlining: […]

[2] = test system: HIV-1/LAV in human peripheral mononuclear blood cells; experiment: Antiviral activity in peripheral mononuclear blood cells infected with HIV-1, cumulative RT activity; assay type: cell-based
From the text: For the experiments using peripheral mononuclear blood cells, the cells are isolated from the blood of healthy HIV-seronegative human subjects using a combination of leukaphoresis and counter-current centrifugal elutriation in accordance with known methods (see Alteri, E., et al., Antimicrob. Agent Chemother. 37(10), 2087-92 (1993)).
The lymphocytotrophic isolate HIV-1/LAV (LAV.04/A.301), for example, is used as the virus (see Science 220, 868-71 (1983)).
The final concentration of free DMSO is less than 0.5%.
When peripheral mononuclear blood cells are used: The mixture of mononuclear cells (lymphocytes and monocytes), which is obtained as described above, is cultured, in the presence of 0.25 μg/ml phytohaemagglutinin (Wellcome Diagnostics, Temple Hill, Dartford, England), for two days in RPMI-1640 (GIBCO, Paisley, Scotland), 50 mU/ml penicillin, 50 μg/ml streptomycin (ANIMED, Muttenz, Switzerland), 2 mM L-glutamine (AMIMED, Muttenz, Switzerland) and 10 mM HEPES buffer (GIBCO, Paisley, Scotland). Successful activation is monitored by measuring the increase in cell size (scattergram, FCM analysis). The cells are resuspended in complete medium containing 10% human AB serum (Sigma, St. Louis, U.S.A.) and infected with HIV-1 for 6 h. After the viral adsorption, the cells are washed and resuspended in complete medium which is supplemented with 100 U/ml human recombinant IL-2 (Genzyme, Cambridge, U.S.A.). 9×10^4 cells are plated out per well (0.3 ml) in 96-well plates having U-shaped well bottoms. The antiviral compounds are added either alone or in combination to sets of five cell cultures in each case (pentaplicates) directly following the infection. Two thirds of the culture medium with or without antiviral compound(s) are replaced every three days. The test is concluded on day 13 after infection. The progress of the viral infection is measured by determining the RT activity as described above for the cell lines.
The activities of the individual compounds, and the combinations, specified in the title, in the peripheral mononuclear blood cell culture are determined using the method described above in association with the description of the pharmacological properties. The measurement result is expressed as the cumulative activity of the reverse transcriptase (RT), in cpm/1.25 μl (number of measured ^32 P disintegrations per 1.25 μl of test mixture and minute) on day 17 after the infection. […] The test compound(s) is/are re-added in associated with each change of the medium (on days 0, 3, 6, 10 and 13): […]

[3] = test system: HIV protease; conditions: cited from earlier work
[4] = test system: viral replication; conditions: cited from earlier work
[5] = test system: CD4 lymphocytes in the blood; conditions: AIDS patients; cited from earlier work
[6] = in vivo, po; cited from earlier work
[7] = in vivo; cited from earlier work

In the case of `COCCNC(=O)[C@@H](NC(=O)[C@H](Cc1ccc(OC)c(OC)c1OC)C[C@H](O)[C@H](Cc1ccccc1)NC(=O)OC(C)(C)C)C(C)C` [Example 47, 5(S)-(Boc-Amino)-4(S)-hydroxy-6-phenyl-2(R)-[(2,3,4-trimethoxyphenyl)methyl]hexanoyl-(L)-Val-N-(2-methoxyethyl)amide], the inhibition at 0.003125 µM ([1]; 3.125 nM, coculture, day 4, read-out: % Inhibition of the RT activity by Example 47 title compound alone) is reported as 2.7%, the inhibition at 0.00625 µM ([1]; 6.25 nM, coculture, day 4, read-out: % Inhibition of the RT activity by Example 47 title compound alone) is reported as 1.3% and the inhibition at 0.0125 µM ([1]; coculture, day 4, read-out: % Inhibition of the RT activity by Example 47 title compound alone) is reported as 52%. For the same compound, the “Cumulative RT activity on day 17 after the infection” value (shortened to “Cumulative RT activity”) ([2]; Example 47 concentration 7.5 alone (unit not given)) was 7909 cpm/μl, the “Cumulative RT activity” value ([2]; Example 47 concentration 15 alone (unit not given)) was 9132 cpm/μl and the “Cumulative RT activity” value ([2]; Example 47 concentration 30 alone (unit not given)) was 8457 cpm/μl. For the same compound, the “Cumulative RT activity” value ([2]; Example 47 concentration 60 alone (unit not given)) was 1823 cpm/μl and the “Cumulative RT activity” value ([2]; Example 47 concentration 120 alone (unit not given)) was 49 cpm/μl.

Compound `CC(C)(C)NC(=O)[C@@H]1CN(Cc2cccnc2)CCN1C[C@@H](O)C[C@@H](Cc1ccccc1)C(=O)N[C@H]1c2ccccc2C[C@H]1O` [Indinavir] has an inhibition at 0.0125 µM ([1]; coculture, day 4, read-out: % Inhibition of the RT activity by Indinavir alone) of 3.2% and an inhibition at 0.025 µM ([1]; 25 nM, coculture, day 4, read-out: % Inhibition of the RT activity by Indinavir alone) of 59.7%.

For `CC(C)(C)NC(=O)[C@@H]1C[C@@H]2CCCC[C@@H]2CN1C[C@@H](O)[C@H](Cc1ccccc1)NC(=O)[C@H](CC(N)=O)NC(=O)c1ccc2ccccc2n1` [Saquinavir, N-tert-butyldecahydro-2-[2(R)-hydroxy-4-phenyl-3(S)-[[N-2-quinolylcarbonyl-L-asparaginyl]amino]butyl]-(4aS,8aS)-isoquinoline-3(S)-carboxamide], the inhibition at 0.00626 µM ([1]; read-out: % Inhibition of the RT activity by Saquinavir alone) was 93.8%, the inhibition at 0.00078 µM ([1]; read-out: % Inhibition of the RT activity by Saquinavir alone, 0.78 nM, coculture, day 4) was 6.6% and the inhibition at 0.00156 µM ([1]; read-out: % Inhibition of the RT activity by Saquinavir alone, 1.56 nM, coculture, day 4) was 14.7%. The inhibition at 0.003125 µM ([1]; read-out: % Inhibition of the RT activity by Saquinavir alone, 3.125 nM, coculture, day 4) was 39.3%, the “effect on HIV protease in vitro” value [3] was “inhibitory effect” and the “viral replication in cell experiments” value [4] was “suppressed viral replication”. The “surrogate marker (titre of the CD4 lymphocytes in the blood)” value [5] was “first positive effects”, the blood levels [6] was “useful blood levels were achieved” and the blood levels [7] was “useful blood levels were also achieved”.
